# Results published in patent US12091411B2, “IRAK degraders and uses thereof” (Kymera Therapeutics, Inc., priority 2022, dated 2024).
# Where two headings read alike, the source gives them in different places.
# Target: T1, IRAK4 (Homo sapiens, UniProt Q9NWZ3)
# T1 construct: Degradation of IRAK4 in OCI-LY10 was quantitatively measured using Meso Scale Discovery technology; endogenous in cells; host or cells: OCI-LY10
# T1 sequence (Q9NWZ3 1-460): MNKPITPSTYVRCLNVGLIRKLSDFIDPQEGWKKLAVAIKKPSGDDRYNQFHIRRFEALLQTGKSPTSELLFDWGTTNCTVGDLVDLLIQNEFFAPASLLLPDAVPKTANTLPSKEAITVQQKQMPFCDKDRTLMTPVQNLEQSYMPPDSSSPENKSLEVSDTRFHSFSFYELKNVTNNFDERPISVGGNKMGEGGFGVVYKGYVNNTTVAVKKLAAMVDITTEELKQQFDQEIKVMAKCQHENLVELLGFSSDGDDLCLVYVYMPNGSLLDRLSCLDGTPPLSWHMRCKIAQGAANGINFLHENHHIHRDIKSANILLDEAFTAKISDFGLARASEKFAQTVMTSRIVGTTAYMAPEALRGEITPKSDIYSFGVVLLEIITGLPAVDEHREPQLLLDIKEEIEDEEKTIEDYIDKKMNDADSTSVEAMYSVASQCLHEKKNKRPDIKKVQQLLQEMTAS
# Assay: IRAK4 MSD Degradation in OCI-LY10
# Type: cell-based
# Conditions: OCI-LY10 cells, MSD
# Method in brief: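 DC50, from a three-parameter logistic fit and reported as letter bins A (<0.01 μM), B, C, D (>0.2 μM or not tested), reflects IRAK4 loss measured by MSD electrochemiluminescence in OCI-LY10 lysates. Treatment: 8 doses, 1:3 steps, top 1 to 10 μM, 4 to 24 h, 37 °C.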
# [1] = 4 hrs incubation, read-out: IRAK4 degradation in OCI-LY10 at 4 hrs: DC50
# [2] = 24 hrs incubation, read-out: IRAK4 degradation in OCI-LY10 at 24 hrs: DC50
DC50 [1],DC50 [2],Structure (SMILES)
> 0.2 µM,< 0.01 µM,Cn1c(=O)n(C2CCC(=O)NC2=O)c2cccc(C#CCN3CCN(C[C@H]4CC[C@H](n5cc(NC(=O)c6cnn7ccc(N8CCOC9(CC9)C8)nc67)c(C(F)F)n5)CC4)CC3)c21 (stereo partly shown) [I-286]
> 0.2 µM,< 0.01 µM,Cn1c(=O)n(C2CCC(=O)NC2=O)c2cccc(C#CCN3CCN(C[C@H]4CC[C@H](n5cc(NC(=O)c6cnn7ccc(N8CCOC9(CCC9)C8)nc67)c(C(F)F)n5)CC4)CC3)c21 (stereo partly shown) [I-287]
> 0.2 µM,> 0.2 µM,CC1CN(c2ccn3ncc(C(=O)Nc4cn([C@H]5CC[C@H](CN6CCN(CC#Cc7cccc8c7n(C)c(=O)n8C7CCC(=O)NC7=O)CC6)CC5)nc4C(F)F)c3n2)CCO1 (stereo partly shown) [I-288]
> 0.2 µM,> 0.2 µM,CC1CN(c2ccn3ncc(C(=O)Nc4cn([C@H]5CC[C@H](CN6CCN(CC#Cc7cccc8c7n(C)c(=O)n8C7CCC(=O)NC7=O)CC6)CC5)nc4C(F)F)c3n2)CC(C)O1 (stereo partly shown) [I-289]
> 0.2 µM,< 0.01 µM,Cn1c(=O)n(C2CCC(=O)NC2=O)c2cccc(C#CCN3CCN(C[C@H]4CC[C@H](n5cc(NC(=O)c6cnn7ccc(N8C[C@H]9CC[C@@H](C8)O9)nc67)c(C(F)F)n5)CC4)CC3)c21 (stereo partly shown) [I-290]
> 0.2 µM,< 0.01 µM,Cn1c(=O)n(C2CCC(=O)NC2=O)c2cccc(C#CCN3CCN(C[C@H]4CC[C@H](n5cc(NC(=O)c6cnn7ccc(N8CCCOCC8)nc67)c(C(F)F)n5)CC4)CC3)c21 (stereo partly shown) [I-291]
> 0.2 µM,< 0.01 µM,Cc1ccc(-c2nn([C@H]3CC[C@H](CN(C)C4CCN(c5cccc6c5n(C)c(=O)n6C5CCC(=O)NC5=O)CC4)CC3)cc2NC(=O)c2cnn3cccnc23)nc1 (stereo partly shown) [I-292]
> 0.2 µM,> 0.2 µM,Cc1ccc(-c2nn([C@H]3CC[C@H](CN(C)C4CCN(c5cccc6c5n(C)c(=O)n6C5CCC(=O)NC5=O)CC4)CC3)cc2NC(=O)c2cnn3cccnc23)c(F)c1 (stereo partly shown) [I-293]
> 0.2 µM,< 0.01 µM,Cn1c(=O)n(C2CCC(=O)NC2=O)c2cccc(C#CCN3CCN(C[C@H]4CC[C@H](n5cc(NC(=O)c6cnn7ccc(N8CCSCC8)nc67)c(C(F)F)n5)CC4)CC3)c21 (stereo partly shown) [I-294]
> 0.2 µM,< 0.01 µM,Cn1c(=O)n(C2CCC(=O)NC2=O)c2cccc(C#CCN3CCN(C[C@H]4CC[C@H](n5cc(NC(=O)c6cnn7ccc(N8CCS(=O)(=O)CC8)nc67)c(C(F)F)n5)CC4)CC3)c21 (stereo partly shown) [I-295]
0.01 to 0.1 µM,> 0.2 µM,Cn1c(=O)n(C2CCC(=O)NC2=O)c2cccc(C#CCN3CCN(C[C@H]4CC[C@H](n5cc(NC(=O)c6cnn7ccc(N8CCC9(CC8)COC9)nc67)c(C(F)F)n5)CC4)CC3)c21 (stereo partly shown) [I-296]
> 0.2 µM,> 0.2 µM,CN1CC2(CCN(c3ccn4ncc(C(=O)Nc5cn([C@H]6CC[C@H](CN7CCN(CC#Cc8cccc9c8n(C)c(=O)n9C8CCC(=O)NC8=O)CC7)CC6)nc5C(F)F)c4n3)CC2)C1 (stereo partly shown) [I-297]
> 0.2 µM,< 0.01 µM,Cn1c(=O)n(C2CCC(=O)NC2=O)c2cccc(C#CCN3CCN(C[C@H]4CC[C@H](n5cc(NC(=O)c6cnn7ccc(C8CCOCC8)nc67)c(C(F)F)n5)CC4)CC3)c21 (stereo partly shown) [I-298]
> 0.2 µM,< 0.01 µM,Cn1c(=O)n(C2CCC(=O)NC2=O)c2cccc(C#CCN3CCN(C[C@H]4CC[C@H](n5cc(NC(=O)c6cnn7ccc(N8CCNCC8)nc67)c(C(F)F)n5)CC4)CC3)c21 (stereo partly shown) [I-299]
> 0.2 µM,< 0.01 µM,CN1CCN(c2ccn3ncc(C(=O)Nc4cn([C@H]5CC[C@H](CN6CCN(CC#Cc7cccc8c7n(C)c(=O)n8C7CCC(=O)NC7=O)CC6)CC5)nc4C(F)F)c3n2)CC1 (stereo partly shown) [I-300]
> 0.2 µM,> 0.2 µM,Cn1c(=O)n(C2CCC(=O)NC2=O)c2cccc(C#CCN3CCN(C[C@H]4CC[C@H](n5cc(NC(=O)c6cnn7ccc(C8COCCN8)nc67)c(C(F)F)n5)CC4)CC3)c21 (stereo partly shown) [I-301]
> 0.2 µM,> 0.2 µM,CN1CCOCC1c1ccn2ncc(C(=O)Nc3cn([C@H]4CC[C@H](CN5CCN(CC#Cc6cccc7c6n(C)c(=O)n7C6CCC(=O)NC6=O)CC5)CC4)nc3C(F)F)c2n1 (stereo partly shown) [I-302]
> 0.2 µM,< 0.01 µM,Cn1c(=O)n(C2CCC(=O)NC2=O)c2cccc(C#CCOC3CCN(C[C@H]4CC[C@H](n5cc(NC(=O)c6cnn7ccc(N8CCSCC8)nc67)c(C(F)F)n5)CC4)CC3)c21 (stereo partly shown) [I-303]
> 0.2 µM,< 0.01 µM,Cn1c(=O)n(C2CCC(=O)NC2=O)c2cccc(C#CCOC3CCN(C[C@H]4CC[C@H](n5cc(NC(=O)c6cnn7ccc(N8CCS(=O)(=O)CC8)nc67)c(C(F)F)n5)CC4)CC3)c21 (stereo partly shown) [I-304]

DC50 [1],DC50 [2],Structure (SMILES)
> 0.2 µM,> 0.2 µM,Cn1c(=O)n(C2CCC(=O)NC2=O)c2cccc(C#CCOC3CCN(C[C@H]4CC[C@H](n5cc(NC(=O)c6cnn7ccc(N8CCC9(CC8)COC9)nc67)c(C(F)F)n5)CC4)CC3)c21 (stereo partly shown) [I-305]
> 0.2 µM,> 0.2 µM,CN1CC2(CCN(c3ccn4ncc(C(=O)Nc5cn([C@H]6CC[C@H](CN7CCC(OCC#Cc8cccc9c8n(C)c(=O)n9C8CCC(=O)NC8=O)CC7)CC6)nc5C(F)F)c4n3)CC2)C1 (stereo partly shown) [I-306]
> 0.2 µM,< 0.01 µM,Cn1c(=O)n(C2CCC(=O)NC2=O)c2cccc(C#CCOC3CCN(C[C@H]4CC[C@H](n5cc(NC(=O)c6cnn7ccc(C8CCOCC8)nc67)c(C(F)F)n5)CC4)CC3)c21 (stereo partly shown) [I-307]
> 0.2 µM,< 0.01 µM,Cn1c(=O)n(C2CCC(=O)NC2=O)c2cccc(C#CCOC3CCN(C[C@H]4CC[C@H](n5cc(NC(=O)c6cnn7ccc(N8CCNCC8)nc67)c(C(F)F)n5)CC4)CC3)c21 (stereo partly shown) [I-308]
> 0.2 µM,< 0.01 µM,CN1CCN(c2ccn3ncc(C(=O)Nc4cn([C@H]5CC[C@H](CN6CCC(OCC#Cc7cccc8c7n(C)c(=O)n8C7CCC(=O)NC7=O)CC6)CC5)nc4C(F)F)c3n2)CC1 (stereo partly shown) [I-309]
> 0.2 µM,> 0.2 µM,Cn1c(=O)n(C2CCC(=O)NC2=O)c2cccc(C#CCOC3CCN(C[C@H]4CC[C@H](n5cc(NC(=O)c6cnn7ccc(C8COCCN8)nc67)c(C(F)F)n5)CC4)CC3)c21 (stereo partly shown) [I-310]
> 0.2 µM,> 0.2 µM,CN1CCOCC1c1ccn2ncc(C(=O)Nc3cn([C@H]4CC[C@H](CN5CCC(OCC#Cc6cccc7c6n(C)c(=O)n7C6CCC(=O)NC6=O)CC5)CC4)nc3C(F)F)c2n1 (stereo partly shown) [I-311]
> 0.2 µM,> 0.2 µM,Cn1c(=O)n(C2CCC(=O)NC2=O)c2cccc(N3CCC(N(CC(F)F)C[C@H]4CC[C@H](n5cc(NC(=O)c6cnn7cccnc67)c(C(F)F)n5)CC4)CC3)c21 (stereo partly shown) [I-312]
> 0.2 µM,> 0.2 µM,Cn1c(=O)n(C2CCC(=O)NC2=O)c2cccc(N3CCC(N(CC(F)(F)F)C[C@H]4CC[C@H](n5cc(NC(=O)c6cnn7cccnc67)c(C(F)F)n5)CC4)CC3)c21 (stereo partly shown) [I-313]
> 0.2 µM,> 0.2 µM,CN(Cc1ccc(-n2cc(NC(=O)c3cnn4cccnc34)c(C(F)F)n2)cc1)C1CCN(c2cccc3c2n(C)c(=O)n3C2CCC(=O)NC2=O)CC1 (stereo not shown) [I-314]
> 0.2 µM,< 0.01 µM,Cn1c(=O)n(C2CCC(=O)NC2=O)c2cccc(C#CCN3CCN(C[C@H]4CC[C@H](n5cc(NC(=O)c6cnn7ccc(N8CC9(COC9)C8)nc67)c(C(F)F)n5)CC4)CC3)c21 (stereo partly shown) [I-315]
> 0.2 µM,0.01 to 0.1 µM,Cn1c(=O)n(C2CCC(=O)NC2=O)c2cccc(C#CCN3CCN(C[C@H]4CC[C@H](n5cc(NC(=O)c6cnn7ccc(N8CC9(CCOCC9)C8)nc67)c(C(F)F)n5)CC4)CC3)c21 (stereo partly shown) [I-316]
> 0.2 µM,> 0.2 µM,Cn1c(=O)n(C2CCC(=O)NC2=O)c2cccc(C#CCN3CCN(C[C@H]4CC[C@H](n5cc(NC(=O)c6cnn7ccc(N8CC9(CCOC9)C8)nc67)c(C(F)F)n5)CC4)CC3)c21 (stereo partly shown) [I-317]
0.01 to 0.1 µM,> 0.2 µM,Cn1c(=O)n(C2CCC(=O)NC2=O)c2cccc(C#CCN3CCN(C[C@H]4CC[C@H](n5cc(NC(=O)c6cnn7ccc(N8CC9(CCCOC9)C8)nc67)c(C(F)F)n5)CC4)CC3)c21 (stereo partly shown) [I-318]
> 0.2 µM,< 0.01 µM,Cn1c(=O)n(C2CCC(=O)NC2=O)c2cccc(C#CCN3CCN(C[C@H]4CC[C@H](n5cc(NC(=O)c6cnn7ccc(N8CCC9(CCOCC9)C8)nc67)c(C(F)F)n5)CC4)CC3)c21 (stereo partly shown) [I-319]
< 0.01 µM,> 0.2 µM,Cn1c(=O)n(C2CCC(=O)NC2=O)c2cccc(C#CCN3CCN(C[C@H]4CC[C@H](n5cc(NC(=O)c6cnn7ccc(N8CCC9(COC9)C8)nc67)c(C(F)F)n5)CC4)CC3)c21 (stereo partly shown) [I-320]
> 0.2 µM,< 0.01 µM,Cn1c(=O)n(C2CCC(=O)NC2=O)c2cccc(C#CCN3CCN(C[C@H]4CC[C@H](n5cc(NC(=O)c6cnn7ccc(N8CCC9(CCOC9)C8)nc67)c(C(F)F)n5)CC4)CC3)c21 (stereo partly shown) [I-321]
> 0.2 µM,> 0.2 µM,Cn1c(=O)n(C2CCC(=O)NC2=O)c2cccc(C#CCN3CCN(C[C@H]4CC[C@H](n5cc(NC(=O)c6cnn7ccc(N8CCOC(C(F)(F)F)C8)nc67)c(C(F)F)n5)CC4)CC3)c21 (stereo partly shown) [I-322]
> 0.2 µM,> 0.2 µM,Cn1c(=O)n(C2CCC(=O)NC2=O)c2cccc(C#CCN3CCN(C[C@H]4CC[C@H](n5cc(NC(=O)c6cnn7ccc(N8CC9COCC9C8)nc67)c(C(F)F)n5)CC4)CC3)c21 (stereo partly shown) [I-323]
